Measured values published in US8106059B2, “Substituted pyrazines that inhibit protease cathepsin S and HCV replication” (ViroBay, Inc., priority 2007, dated 2012).
Like-named read-outs stand apart in the source and are kept apart here.

Columns and labels:
[1] = target: recombinant human cathepsin S (Homo sapiens, UniProt P25774); assay: Cathepsin S enzyme activity assay; assay type: biochemical; conditions: 10 uM Z-Leu-Arg-AMC, pH 4.5, 25° C.
Method: The cysteine protease inhibitor E-64 is assayed in parallel as a positive control.
Human recombinant cathepsin S is incubated with compounds or vehicle (final concentration=1% DMSO vehicle) in the presence of peptide substrate which is 10 uM Z-Leu-Arg-AMC. Compounds are preincubated with the enzyme for 15 minutes at 25° C. and the reaction started by the addition of substrate. Incubation with substrate proceeds for 30 minutes at 25° C. Incubation buffer is 20 mM CH3COONa, pH 4.5, 2.5 mM DTT, 0.05 M NaCl. Cathepsin S-mediated substrate cleavage is quantified using spectofluorimetric quantitation of AMC.

[2] = test system: HCV replicon-containing cells (Huh7/Clone A); assay: HCV replicon assay; assay type: cell-based, Hepatitis C virus; conditions: at 25 μM, 48 hours
Text: The HCV replicon assay is a cell-culture system that mimics in vivo HCV replication and provides a system to study HCV replication in vitro. It was created by transfecting cloned viral RNA derived from a consensus HCV genomic sequence into human Huh7 hepatoma cells that are semi-permissive for viral RNA production (Lohmann V., Korner F., Koch J.-O., Herian U., Theilmann L. and Bartenschlager R. (1999). Replication of subgenomic Hepatitis C virus RNAs in a hepatoma cell line. Science 285, 110-113 and Blight K. J., Kolykhalov A. A. and Rice C. M. (2000). Efficient initiation of HCV RNA Replication in cell culture. Science 290, […]). These transfected cell lines contain a subgenomic HCV RNA genome that includes (1) the HCV 5′NTR fused to 12 amino acids of the capsid coding region, (2) the neomycin phosphotransferase gene (Neo) as a selectable marker, (3) the internal ribosome entry site (IRES) from encephalomyocarditis virus (EMCV) that directs translation of HCV non-structural proteins (variously NS2 or NS3 to NS5B), and (4) the 3′ NTR. Replicon-containing cells autonomously and persistently replicate HCV RNA that can be measured quantitatively by real-time qPCR. Therefore, the replicon system facilitates quantitative assessment of anti-viral activity by monitoring changes in HCV RNA replication in a cell-based assay.
HCV replicon-containing cells (Huh7/Clone A) were routinely maintained in Clone A growth medium (DMEM medium [Invitrogen], supplemented with 10% Fetal Bovine Serum, 1% Non Essential Amino Acids and 1 g/L G418). Test compounds were dissolved in dimethylsulfoxide (DMSO) to make 200× stock solutions for all doses prior to treatment.
For the HCV replicon assay, Huh7/Clone A cells were trypsinized from culture flasks, seeded in 1 ml of Clone A growth medium without G418 at 4×10^4 cells per well in 24-well plates and incubated at 37° C. in a humidified CO2 (5%) incubator overnight. Following overnight incubation, compound solutions were added into wells in the same volume (5 μl of 200× compound stock per well) to give a final DMSO concentration of 0.5%. Three wells on each plate supplemented with 5 μl of DMSO served as untreated controls. […]
Total RNA eluted in 130 μl of RNase-free dH2O was quantitated by the RiboGreen Assay according to the supplier's protocol (Molecular Probe). […] RNA samples in the black microplate were mixed with 95 μl of diluted RiboGreen reagent (1:250 dilution in TE buffer) and sample fluorescence was measured using a fluorescence microplate reader at standard fluorescein wavelengths (excitation ˜480 nm, emission ˜520 nm). […]
TaqMan quantitative PCR (RT-qPCR) was used to quantitate the amount of HCV replicon RNA in each sample. […]

[3] = recombinant human cathepsin S, read-out: Cathepsin S IC50
[4] = Cathepsin S IC50, recombinant human cathepsin S

Chain of recombinant human cathepsin S (P25774 115-331): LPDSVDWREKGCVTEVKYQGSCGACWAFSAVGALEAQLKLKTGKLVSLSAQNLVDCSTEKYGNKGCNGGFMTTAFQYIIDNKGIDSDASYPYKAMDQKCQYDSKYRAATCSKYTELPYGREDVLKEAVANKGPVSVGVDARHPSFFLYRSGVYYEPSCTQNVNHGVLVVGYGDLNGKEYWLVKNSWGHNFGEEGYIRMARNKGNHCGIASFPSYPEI

With CCC[C@H](NC(=O)[C@@H]1[C@H]2CCC[C@H]2CN1C(=O)[C@@H](NC(C(NC(=O)c1cnccn1)C1CCCCC1)C(F)(F)F)C(C)(C)C)C(=O)C(=O)NC1CC1 (single isomer, unassigned) [Formula I isomer A] the IC50 [1, 3] was 4.1 nM and the “inhibition of HCV replicon RNA” value [2] was 41%.

In the case of CCC[C@H](NC(=O)[C@@H]1[C@H]2CCC[C@H]2CN1C(=O)[C@@H](NC(C(NC(=O)c1cnccn1)C1CCCCC1)C(F)(F)F)C(C)(C)C)C(=O)C(=O)NC1CC1 (single isomer, unassigned) [Formula I isomer B], the IC50 [1, 4] is reported as 0.6 nM and the “inhibition of HCV replicon RNA” value [2] is reported as 33%.

With CCC[C@H](NC(=O)[C@@H]1[C@H]2CCC[C@H]2CN1C(=O)[C@@H](NC(C(NC(=O)c1cnccn1)C1CCCCC1)C(F)(F)F)C(C)(C)C)C(=O)C(=O)NC1CC1 (single isomer, unassigned) [Formula I isomer C] the IC50 [1, 4] was 2 nM and the “inhibition of HCV replicon RNA” value [2] was 34%.

In the case of CCC[C@H](NC(=O)[C@@H]1[C@H]2CCC[C@H]2CN1C(=O)[C@@H](NC(C(NC(=O)c1cnccn1)C1CCCCC1)C(F)(F)F)C(C)(C)C)C(=O)C(=O)NC1CC1 (single isomer, unassigned) [Formula I isomer D], the IC50 [1, 4] is reported as 0.6 nM and the “inhibition of HCV replicon RNA” value [2] is reported as 29%.

CCC[C@H](NC(=O)[C@@H]1[C@H]2CCC[C@H]2CN1C(=O)[C@@H](NC(=O)[C@@H](NC(c1cnccn1)C(F)(F)F)C1CCCCC1)C(C)(C)C)C(=O)C(=O)NC1CC1 (single isomer, unassigned) [Formula I isomer E] showed an IC50 [1, 3] of 1.8 nM.

For CCC[C@H](NC(=O)[C@@H]1[C@H]2CCC[C@H]2CN1C(=O)[C@@H](NC(=O)[C@@H](NC(c1cnccn1)C(F)(F)F)C1CCCCC1)C(C)(C)C)C(=O)C(=O)NC1CC1 (single isomer, unassigned) [Formula I isomer F], the IC50 [1, 3] was 1.4 nM.
